Data as given in BindingDB's records for doi:10.7270/Q2251GJ9 (The Scripps Research Institute Molecular Screening Center, 2007).

Biological target: Sphingosine 1-phosphate receptor 1 (Homo sapiens, UniProt P21453)
Experiment: S1P1 receptor agonists, dose response, cell-based, agonist mode, 60K MLSMR set (AID 468)
[1] = inactive by the depositor's call

Sequence of Sphingosine 1-phosphate receptor 1 (P21453 whole entry): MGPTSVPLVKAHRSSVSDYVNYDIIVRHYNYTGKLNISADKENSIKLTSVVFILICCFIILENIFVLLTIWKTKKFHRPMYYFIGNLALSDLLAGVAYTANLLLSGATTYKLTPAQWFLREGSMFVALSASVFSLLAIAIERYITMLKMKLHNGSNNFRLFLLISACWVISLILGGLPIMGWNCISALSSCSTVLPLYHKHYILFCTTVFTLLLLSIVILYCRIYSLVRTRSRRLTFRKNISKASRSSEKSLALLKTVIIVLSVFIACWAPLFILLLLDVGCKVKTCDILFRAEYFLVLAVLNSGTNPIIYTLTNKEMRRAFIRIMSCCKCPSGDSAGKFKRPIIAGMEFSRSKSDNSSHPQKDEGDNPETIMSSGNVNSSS

O=C(Nc1cccc(C(F)(F)F)c1)N1CCC(c2nc(-c3ccc(F)cc3)no2)CC1 [4-[3-(4-Fluoro-phenyl)-[1,2,4]oxadiazol-5-yl]-piperidine-1-carboxylic acid (3-trifluoromethyl-phenyl)-amide] was tested, and the EC50 was 7.37 µM.

O=C(Nc1ccc(Cl)cc1)N1CCC(c2nc(-c3ccc(F)cc3)no2)CC1 [4-[3-(4-Fluoro-phenyl)-[1,2,4]oxadiazol-5-yl]-piperidine-1-carboxylic acid (4-chloro-phenyl)-amide] showed an EC50 of 5.07 µM.

CCOC(=O)c1ccc(NC(=O)CCc2nc(-c3ccc(Cl)cc3)no2)cc1 [4-[3-[3-(4-chlorophenyl)-1,2,4-oxadiazol-5-yl]propanoylamino]benzoic acid ethyl ester] gave an EC50 [1] of 13.3 µM.

For Fc1ccc2[nH]c3c(N4CCN(Cc5ccc6c(c5)OCO6)CC4)ncnc3c2c1 [4-[4-(1,3-benzodioxol-5-ylmethyl)-1-piperazinyl]-8-fluoro-5H-pyrimido[5,4-b]indole], the EC50 was 1.96 µM.

For COc1cccc(N2CCN(c3ncnc4c3[nH]c3ccccc34)CC2C)c1 (stereo not drawn) [4-[4-(3-methoxyphenyl)-3-methyl-1-piperazinyl]-5H-pyrimido[5,4-b]indole], the EC50 was 3.73 µM.

Compound Oc1ccc(N2CCN(c3ncnc4sc5c(c34)CCC5)CC2)cc1 [4-[4-(7,8-dihydro-6H-cyclopenta[4,5]thieno[1,2-c]pyrimidin-1-yl)-1-piperazinyl]phenol] has an EC50 of 9.07 µM.

Work on Clc1ccc(OCCN2CCN(c3ncnc4sccc34)CC2)cc1 [4-[4-[2-(4-chloranylphenoxy)ethyl]piperazin-1-yl]thieno[2,3-d]pyrimidine] yielded an EC50 of 0.106 µM.

Work on Cn1nc(CC(=O)Nc2ccc(N3CCN(C(=O)OC(C)(C)C)CC3)cc2)c2ccccc2c1=O [4-[4-[[2-(3-methyl-4-oxo-1-phthalazinyl)-1-oxoethyl]amino]phenyl]-1-piperazinecarboxylic acid tert-butyl ester] yielded an EC50 [1] of 13.3 µM.

With CCOc1ccc(Cc2nc(-c3nonc3N)no2)cc1OCC [4-[5-(3,4-diethoxybenzyl)-1,2,4-oxadiazol-3-yl]-1,2,5-oxadiazol-3-amine] the EC50 was 9.19 µM.

For CCOc1ccc(-c2nc(-c3ccncc3)no2)cc1OCC [4-[5-(3,4-diethoxyphenyl)-1,2,4-oxadiazol-3-yl]pyridine], the EC50 was 0.207 µM.

Cc1ccc(C(C)C)c(OCc2nc(-c3nonc3N)no2)c1 [4-[5-[(5-methyl-2-propan-2-yl-phenoxy)methyl]-1,2,4-oxadiazol-3-yl]-1,2,5-oxadiazol-3-amine] gave an EC50 of 1.61 µM.

c1ccc(N2CCN(Cc3ccnc4ccccc34)CC2)cc1 [4-[(4-phenyl-1-piperazinyl)methyl]quinoline] gave an EC50 of 9.24 µM.

Work on CCOC(=O)N1CCC(NC(=O)C2CCCN(Cc3nc(-c4cccc(Cl)c4)oc3C)C2)CC1 (stereo not drawn) [4-[[1-[[2-(3-chlorophenyl)-5-methyl-oxazol-4-yl]methyl]nipecotoyl]amino]piperidine-1-carboxylic acid ethyl ester] yielded an EC50 [1] of 18.4 µM.

For COC(=O)c1ccc(C(c2c(N)n(CC(C)C)c(=O)[nH]c2=O)N2CCN(c3ccccc3)CC2)cc1 (stereo not drawn) [4-[[6-amino-1-(2-methylpropyl)-2,4-dioxo-5-pyrimidinyl]-(4-phenyl-1-piperazinyl)methyl]benzoic acid methyl ester], the EC50 [1] was 95 µM.

Compound CCN(CC)c1ccc2cc(NC(=O)CCC(=O)O)c(=O)oc2c1 [4-[[7-(diethylamino)-2-keto-chromen-3-yl]amino]-4-keto-butyric acid] has an EC50 of 9.78 µM.

With CN(CC1CCCO1)S(=O)(=O)c1ccc(C(=O)Nc2nc(-c3ccccn3)cs2)cc1 (stereo not drawn) [4-[methyl(2-oxolanylmethyl)sulfamoyl]-N-[4-(2-pyridinyl)-2-thiazolyl]benzamide] the EC50 was > 10 µM.

In the case of CC(=O)c1c(C)[nH]c(C(=O)OCCCCN2C(=O)c3ccccc3C2=O)c1C [4-acetyl-3,5-dimethyl-1H-pyrrole-2-carboxylic acid 4-(1,3-dioxo-2-isoindolyl)butyl ester], the EC50 is reported as 2.04 µM.

Cc1ccc2nc(C(F)(F)F)c(C#N)c(N)c2c1 [4-amino-6-methyl-2-(trifluoromethyl)-3-quinolinecarbonitrile] gave an EC50 of 7.58 µM.
